Measurements from PMC10272271, “MAM-2201 acute administration impairs motor, sensorimotor, prepulse inhibition, and memory functions in mice: a comparison with its analogue AM-2201” (Psychopharmacology, 2023).

Assays:
Format in all cases: in vivo, mouse
CD-1 male mice [1] = test: Visual placing response test; settings: AM 251 6 mg/kg i.p. before MAM-2201 6 mg/kg
Method: For the overall study 234 mice were used. In sensorimotor (visual object, visual placing, acoustic, and overall tactile responses) tests for MAM-2201, experiments for each treatment dose (vehicle or 5 different MAM-2201 doses, 0.01, 0.1, 1, 3, and 6 mg/kg) used 8 mice (total mice used: 48) and for MAM-2201 with AM-251 pretreatment, experiments for each dose regimen (vehicle + AM-251 or MAM-2201 + AM-251, 6 mg/kg) used 16 mice. In the analysis of spontaneous locomotion (open field test) for MAM-2201, experiments for each treatment regimen (vehicle or 4 different MAM-2201 doses, 0.01, 0.1, 1, and 6 mg/kg) used 10 mice (total mice used: 50). In the PPI test for MAM-2201, experiments for each treatment (vehicle or 3 different MAM-2201 doses, 0.01, 0.1, and 1 mg/kg) used 10 mice (total mice used: 40), while for MAM-2201 experiments in the Novel Object Recognition (NOR) test for each treatment regimen (vehicle or 3 different MAM-2201 and vehicle or 3 different AM-2201 doses, 0.01, 0.1, and 1 mg/kg) used 10 mice (total mice used: 80). […] The voluntary and involuntary motor responses of the animal to different visual, acoustic, and tactile stimuli were evaluated according to the procedure described in our previous studies (Ossato et al. [2015]; Bilel et al. [2020]). To reduce the number of animals used, mice were evaluated in functional observational tests carried out in a consecutive manner according to the following time scheme: observation of visual object responses (frontal and lateral view), acoustic response, tactile response (vibrissae, corneal and pinnae reflexes), and visual placing response. Sensorimotor tests were measured at 10, 30, 60, 120, 180, 240, and 300 min after injections for the evaluation of the visual object, acoustic and the tactile response, and at 15, 45, 75, 135, 195, 255, and 315 min after injections for the evaluation of visual placing response. […] Sensory gating was evaluated by analysis of the pre-pulse inhibition (PPI) of the acoustic startle reflex as previously described (Bilel et al. [2020]). […]

CD-1 male mice [2] = test: Acoustic response test; settings: AM 251 6 mg/kg i.p. before MAM-2201 6 mg/kg
Method: For the overall study 234 mice were used. In sensorimotor (visual object, visual placing, acoustic, and overall tactile responses) tests for MAM-2201, experiments for each treatment dose (vehicle or 5 different MAM-2201 doses, 0.01, 0.1, 1, 3, and 6 mg/kg) used 8 mice (total mice used: 48) and for MAM-2201 with AM-251 pretreatment, experiments for each dose regimen (vehicle + AM-251 or MAM-2201 + AM-251, 6 mg/kg) used 16 mice. In the analysis of spontaneous locomotion (open field test) for MAM-2201, experiments for each treatment regimen (vehicle or 4 different MAM-2201 doses, 0.01, 0.1, 1, and 6 mg/kg) used 10 mice (total mice used: 50). In the PPI test for MAM-2201, experiments for each treatment (vehicle or 3 different MAM-2201 doses, 0.01, 0.1, and 1 mg/kg) used 10 mice (total mice used: 40), while for MAM-2201 experiments in the Novel Object Recognition (NOR) test for each treatment regimen (vehicle or 3 different MAM-2201 and vehicle or 3 different AM-2201 doses, 0.01, 0.1, and 1 mg/kg) used 10 mice (total mice used: 80). In the present study the effect of MAM-2201 on sensorimotor responses was investigated using a battery of behavioral tests widely used in studies of “safety-pharmacology,” that we routinely adopted in our laboratory, for the preclinical characterization of new molecules in rodents (Ossato et al. [2015]; Vigolo et al. [2015]; Bilel et al. [2020]). The voluntary and involuntary motor responses of the animal to different visual, acoustic, and tactile stimuli were evaluated according to the procedure described in our previous studies (Ossato et al. [2015]; Bilel et al. [2020]). To reduce the number of animals used, mice were evaluated in functional observational tests carried out in a consecutive manner according to the following time scheme: observation of visual object responses (frontal and lateral view), acoustic response, tactile response (vibrissae, corneal and pinnae reflexes), and visual placing response. Sensorimotor tests were measured at 10, 30, 60, 120, 180, 240, and 300 min after injections for the evaluation of the visual object, acoustic and the tactile response, and at 15, 45, 75, 135, 195, 255, and 315 min after injections for the evaluation of visual placing response. Behavioral tests were conducted in a thermostated (temperature: 20–22 °C, humidity: 45–55%) and light (150 lx) controlled room with a background noise of 40 ± 4 dB. The apparatus for the visual object, acoustic and tactile sensorimotor tests consisted of an experimental chamber (350 × 350 × 350 mm) with black methacrylate walls and a transparent front door. During the week before the experiment, each mouse was placed in the box and handled (once a day) on every other day, i.e., 3 times, to get used to both the environment and the experimenter. To avoid olfactory cues, cages were carefully cleaned with a dilute (5%) ethanol solution and rinsed with water. All experiments were performed between 8:30 AM and 2:00 PM and conducted by trained observers working in pairs who were blinded to the treatment being tested (Ossato et al. [2015]). The behavior of mice was videotaped by a camera (B/W USB Camera day & night with varifocal lens; Ugo Basile, Italy) placed at the top or on one side of the box and analyzed off-line by a different trained operator. […] Sensory gating was evaluated by analysis of the pre-pulse inhibition (PPI) of the acoustic startle reflex as previously described (Bilel et al. [2020]). […]

CD-1 male mice [3] = test: Overall tactile response (vibrissae, corneal, pinnae reflexes); settings: AM 251 6 mg/kg i.p. before MAM-2201 6 mg/kg
Method: For the overall study 234 mice were used. In sensorimotor (visual object, visual placing, acoustic, and overall tactile responses) tests for MAM-2201, experiments for each treatment dose (vehicle or 5 different MAM-2201 doses, 0.01, 0.1, 1, 3, and 6 mg/kg) used 8 mice (total mice used: 48) and for MAM-2201 with AM-251 pretreatment, experiments for each dose regimen (vehicle + AM-251 or MAM-2201 + AM-251, 6 mg/kg) used 16 mice. In the analysis of spontaneous locomotion (open field test) for MAM-2201, experiments for each treatment regimen (vehicle or 4 different MAM-2201 doses, 0.01, 0.1, 1, and 6 mg/kg) used 10 mice (total mice used: 50). In the PPI test for MAM-2201, experiments for each treatment (vehicle or 3 different MAM-2201 doses, 0.01, 0.1, and 1 mg/kg) used 10 mice (total mice used: 40), while for MAM-2201 experiments in the Novel Object Recognition (NOR) test for each treatment regimen (vehicle or 3 different MAM-2201 and vehicle or 3 different AM-2201 doses, 0.01, 0.1, and 1 mg/kg) used 10 mice (total mice used: 80). In the present study the effect of MAM-2201 on sensorimotor responses was investigated using a battery of behavioral tests widely used in studies of “safety-pharmacology,” that we routinely adopted in our laboratory, for the preclinical characterization of new molecules in rodents (Ossato et al. [2015]; Vigolo et al. [2015]; Bilel et al. [2020]). The voluntary and involuntary motor responses of the animal to different visual, acoustic, and tactile stimuli were evaluated according to the procedure described in our previous studies (Ossato et al. [2015]; Bilel et al. [2020]). To reduce the number of animals used, mice were evaluated in functional observational tests carried out in a consecutive manner according to the following time scheme: observation of visual object responses (frontal and lateral view), acoustic response, tactile response (vibrissae, corneal and pinnae reflexes), and visual placing response. Sensorimotor tests were measured at 10, 30, 60, 120, 180, 240, and 300 min after injections for the evaluation of the visual object, acoustic and the tactile response, and at 15, 45, 75, 135, 195, 255, and 315 min after injections for the evaluation of visual placing response. Behavioral tests were conducted in a thermostated (temperature: 20–22 °C, humidity: 45–55%) and light (150 lx) controlled room with a background noise of 40 ± 4 dB. […] The behavior of mice was videotaped by a camera (B/W USB Camera day & night with varifocal lens; Ugo Basile, Italy) placed at the top or on one side of the box and analyzed off-line by a different trained operator. […] Sensory gating was evaluated by analysis of the pre-pulse inhibition (PPI) of the acoustic startle reflex as previously described (Bilel et al. [2020]). […]

CD-1 male mice [4] = test: Visual object response test; settings: AM 251 6 mg/kg i.p. 20 min before MAM-2201 6 mg/kg
Method: For the overall study 234 mice were used. In sensorimotor (visual object, visual placing, acoustic, and overall tactile responses) tests for MAM-2201, experiments for each treatment dose (vehicle or 5 different MAM-2201 doses, 0.01, 0.1, 1, 3, and 6 mg/kg) used 8 mice (total mice used: 48) and for MAM-2201 with AM-251 pretreatment, experiments for each dose regimen (vehicle + AM-251 or MAM-2201 + AM-251, 6 mg/kg) used 16 mice. In the analysis of spontaneous locomotion (open field test) for MAM-2201, experiments for each treatment regimen (vehicle or 4 different MAM-2201 doses, 0.01, 0.1, 1, and 6 mg/kg) used 10 mice (total mice used: 50). In the PPI test for MAM-2201, experiments for each treatment (vehicle or 3 different MAM-2201 doses, 0.01, 0.1, and 1 mg/kg) used 10 mice (total mice used: 40), while for MAM-2201 experiments in the Novel Object Recognition (NOR) test for each treatment regimen (vehicle or 3 different MAM-2201 and vehicle or 3 different AM-2201 doses, 0.01, 0.1, and 1 mg/kg) used 10 mice (total mice used: 80). In the present study the effect of MAM-2201 on sensorimotor responses was investigated using a battery of behavioral tests widely used in studies of “safety-pharmacology,” that we routinely adopted in our laboratory, for the preclinical characterization of new molecules in rodents (Ossato et al. [2015]; Vigolo et al. [2015]; Bilel et al. [2020]). The voluntary and involuntary motor responses of the animal to different visual, acoustic, and tactile stimuli were evaluated according to the procedure described in our previous studies (Ossato et al. [2015]; Bilel et al. [2020]). To reduce the number of animals used, mice were evaluated in functional observational tests carried out in a consecutive manner according to the following time scheme: observation of visual object responses (frontal and lateral view), acoustic response, tactile response (vibrissae, corneal and pinnae reflexes), and visual placing response. Sensorimotor tests were measured at 10, 30, 60, 120, 180, 240, and 300 min after injections for the evaluation of the visual object, acoustic and the tactile response, and at 15, 45, 75, 135, 195, 255, and 315 min after injections for the evaluation of visual placing response. Behavioral tests were conducted in a thermostated (temperature: 20–22 °C, humidity: 45–55%) and light (150 lx) controlled room with a background noise of 40 ± 4 dB. The apparatus for the visual object, acoustic and tactile sensorimotor tests consisted of an experimental chamber (350 × 350 × 350 mm) with black methacrylate walls and a transparent front door. During the week before the experiment, each mouse was placed in the box and handled (once a day) on every other day, i.e., 3 times, to get used to both the environment and the experimenter. To avoid olfactory cues, cages were carefully cleaned with a dilute (5%) ethanol solution and rinsed with water. All experiments were performed between 8:30 AM and 2:00 PM and conducted by trained observers working in pairs who were blinded to the treatment being tested (Ossato et al. [2015]). The behavior of mice was videotaped by a camera (B/W USB Camera day & night with varifocal lens; Ugo Basile, Italy) placed at the top or on one side of the box and analyzed off-line by a different trained operator. Spontaneous locomotion studies were conducted in a separate set of animals through ANYMAZE test. Sensory gating was evaluated by analysis of the pre-pulse inhibition (PPI) of the acoustic startle reflex as previously described (Bilel et al. [2020]).
Visual object response test was used to evaluate the ability of the mouse to see an object approaching from the front (frontal view) or the side (lateral view) that typically induces the animal to shift or turn the head, bring the forelimbs in the position of “defense” or retreat from it. For the frontal visual response, a white horizontal bar was moved frontally to the mouse head and the maneuver was repeated 3 times. […]

## Cc1c(C(=O)NN2CCCCC2)nn(-c2ccc(Cl)cc2Cl)c1-c1ccc(I)cc1 [AM 251, 1-(2,4-Dichlorophenyl)-5-(4-iodophenyl)-4-methyl-N-(piperidin-1-yl)-1H-pyrazole-3-carboxamide, reference compound]
CD-1 male mice [1]
  effect of pre-treatment on MAM-2201-induced inhibition of visual placing response: prevented
CD-1 male mice [2]
  effect of pre-treatment on MAM-2201-induced inhibition of acoustic response: prevented
CD-1 male mice [3]
  effect of pre-treatment on MAM-2201-induced inhibition of overall tactile response: prevented
CD-1 male mice [4]
  effect of pre-treatment on MAM-2201-induced inhibition of visual object response: significantly prevented
